Row | SMILES | melting point [°C]
1 | O=C1[C@H](CC[C@H](O)c2ccc(F)cc2)[C@@H](c2ccc(CC[C@@H]3O[C@H](CO)[C@@H](O)[C@H](O)[C@H]3O)cc2)N1c1ccc(F)cc1 [Compound 46] | 153 to 155
2 | O=C1[C@H](CC[C@H](O)c2ccc(F)cc2)[C@@H](c2ccc(C[C@@H]3O[C@H](CO)[C@@H](O)[C@H](O)[C@H]3O)cc2)N1c1ccc(F)cc1 [Compound 22] | 115 to 117
3 | O=C1[C@H](CC[C@H](O)c2ccc(F)cc2)[C@@H](c2ccc(/C=C/COC[C@@H]3O[C@H](CO)[C@@H](O)[C@H](O)[C@H]3O)cc2)N1c1ccc(F)cc1 [Compound 51] | 65 to 67
4 | O=C1[C@H](CCCc2ccc(F)cc2)[C@@H](c2ccc(C[C@@H]3O[C@H](CO)[C@@H](O)[C@H](O)[C@H]3O)cc2)N1c1ccc(F)cc1 [Compound 2] | 110 to 112
5 | O=C1[C@H](CC[C@H](O)c2ccc(F)cc2)[C@@H](c2ccc(/C=C/[C@@H]3O[C@H](CO)[C@@H](O)[C@H](O)[C@H]3O)cc2)N1c1ccc(F)cc1 [Compound 45] | 84 to 86
6 | CCOC(=O)c1ccc(N2C(=O)[C@H](CC[C@H](O)c3ccc(F)cc3)[C@H]2c2ccc(C[C@@H]3O[C@H](CO)[C@@H](O)[C@H](O)[C@H]3O)cc2)cc1 [Compound 42] | 56 to 58
7 | O=C1[C@H](CCOc2ccc(F)cc2)[C@@H](c2ccc(OC[C@@H]3O[C@H](CO)[C@@H](O)[C@H](O)[C@H]3O)cc2)N1c1ccc(F)cc1 [Compound 15] | 64 to 65
8 | O=C1[C@H](CC[C@H](O)c2ccc(F)cc2)[C@@H](c2ccc(CCCCC[C@@H]3O[C@H](CO)[C@@H](O)[C@H](O)[C@H]3O)cc2)N1c1ccc(F)cc1 [Compound 55] | 66 to 68
9 | O=C1[C@H](CCCc2ccc(F)cc2)[C@@H](c2ccc(OC[C@@H]3O[C@H](CO)[C@@H](O)[C@H](O)[C@H]3O)cc2)N1c1ccc(F)cc1 [Compound 14] | 61 to 62
10 | O=C1[C@H](CCCc2ccccc2)[C@@H](c2ccc(C[C@@H]3O[C@H](CO)[C@@H](O)[C@H](O)[C@H]3O)cc2)N1c1ccc(F)cc1 [Compound 11] | 74 to 75
11 | CCOC(=O)C(C)(C)Oc1ccc(N2C(=O)[C@H](CCCc3ccc(F)cc3)[C@H]2c2ccc(C[C@@H]3O[C@H](CO)[C@@H](O)[C@H](O)[C@H]3O)cc2)cc1 [Compound 18] | 73 to 74
12 | O=C1[C@H](CC[C@H](O)c2ccc(F)cc2)[C@@H](c2ccc(/C=C/C[C@@H]3O[C@H](CO)[C@@H](O)[C@H](O)[C@H]3O)cc2)N1c1ccc(F)cc1 [Compound 47] | 72 to 74
13 | O=C(O)[C@H]1O[C@@H](Cc2ccc([C@@H]3[C@@H](CCCc4ccc(F)cc4)C(=O)N3c3ccc(F)cc3)cc2)[C@H](O)[C@@H](O)[C@@H]1O [Compound 17] | 105 to 106
14 | O=C(CC[C@H]1C(=O)N(c2ccccc2)[C@@H]1c1ccc(C[C@@H]2O[C@H](CO)[C@@H](O)[C@H](O)[C@H]2O)cc1)c1ccc(F)cc1 [Compound 27] | 104 to 106
15 | Cc1ccc(N2C(=O)[C@H](CCOc3ccc(F)cc3)[C@H]2c2ccc(C[C@@H]3O[C@H](CO)[C@@H](O)[C@H](O)[C@H]3O)cc2)cc1 [Compound 43] | 96 to 98
16 | CC(=O)OC[C@H]1O[C@@H](Cc2ccc([C@@H]3[C@@H](CCCc4ccc(F)cc4)C(=O)N3c3ccc(F)cc3)cc2)[C@H](OC(C)=O)[C@@H](OC(C)=O)[C@@H]1OC(C)=O [Compound 3] | 56 to 58
17 | O=C1[C@H](CCCc2ccc(F)cc2)[C@@H](c2ccc(C[C@@H]3O[C@H](CO)[C@@H](O)[C@H](O)[C@H]3O)cc2)N1c1ccccc1 [Compound 9] | 84 to 86

Row | SMILES | melting point [°C]
18 | O=C1[C@H](CC[C@H](O)c2ccc(F)cc2)[C@@H](c2ccc(/C=C/CC[C@@H]3O[C@H](CO)[C@@H](O)[C@H](O)[C@H]3O)cc2)N1c1ccc(F)cc1 [Compound 52] | 79 to 81
19 | O=C1[C@H](CC[C@H](O)c2ccc([C@H]3O[C@@H](CO)[C@H](O)[C@@H](O)[C@@H]3O)cc2)C(c2ccc(F)cc2)N1c1ccc(F)cc1 (stereo partly shown) [Compound 49] | 111 to 113
20 | CC(C)(Oc1ccc(N2C(=O)[C@H](CCCc3ccc(F)cc3)[C@H]2c2ccc(C[C@@H]3O[C@H](CO)[C@@H](O)[C@H](O)[C@H]3O)cc2)cc1)C(=O)O [Compound 19] | 170 to 172
21 | O=C1[C@H](CCCc2ccc(F)cc2)[C@H](c2ccc(C[C@@H]3O[C@H](CO)[C@@H](O)[C@H](O)[C@H]3O)cc2)N1c1ccc(F)cc1 [Compound 40] | 78 to 80
22 | O=C1[C@H](CCOc2ccc(F)cc2)[C@@H](c2ccc(C[C@@H]3O[C@H](CO)[C@@H](O)[C@H](O)[C@H]3O)cc2)N1c1ccc(F)cc1 [Compound 12] | 65 to 67
23 | O=C(O)[C@H]1O[C@@H](Cc2ccc([C@@H]3[C@@H](CC[C@H](O)c4ccc(F)cc4)C(=O)N3c3ccc(F)cc3)cc2)[C@H](O)[C@@H](O)[C@@H]1O [Compound 33] | 82 to 84
24 | O=C1[C@H](CCCc2ccccc2)[C@@H](c2ccc(C[C@@H]3O[C@H](CO)[C@@H](O)[C@H](O)[C@H]3O)cc2)N1c1ccccc1 [Compound 44] | 84 to 86
25 | CCOC(=O)C(C)(C)Oc1ccc(N2C(=O)[C@H](CCCc3ccc(C)cc3)[C@H]2c2ccc(C[C@@H]3O[C@H](CO)[C@@H](O)[C@H](O)[C@H]3O)cc2)cc1 [Compound 20] | 76 to 78
26 | O=C(O)c1ccc(N2C(=O)[C@H](CCC(=O)c3ccc(F)cc3)[C@H]2c2ccc(C[C@@H]3O[C@H](CO)[C@@H](O)[C@H](O)[C@H]3O)cc2)cc1 [Compound 30] | 102 to 104
27 | O=C1[C@H](CC[C@H](O)c2ccc(C[C@@H]3O[C@H](CO)[C@@H](O)[C@H](O)[C@H]3O)cc2)[C@@H](c2ccc(F)cc2)N1c1ccc(F)cc1 [Compound 39] | 126 to 128
28 | Cc1ccc(N2C(=O)[C@H](CC[C@H](O)c3ccc(F)cc3)[C@H]2c2ccc(C[C@@H]3O[C@H](CO)[C@@H](O)[C@H](O)[C@H]3O)cc2)cc1 [Compound 24] | 102 to 104
29 | O=C1[C@H](CCCc2ccc(F)cc2)[C@@H](c2ccc(C3O[C@H](CO)[C@@H](O)[C@H](O)[C@H]3O)cc2)N1c1ccc(F)cc1 (stereo partly shown) [Compound 1] | 89 to 90
30 | O=C1[C@H](CC[C@H](O)c2ccc(F)cc2)[C@@H](c2ccc([C@@H]3O[C@H](CO)[C@@H](O)[C@H](O)[C@H]3O)cc2)N1c1ccc(F)cc1 [Compound 35] | 81 to 83
31 | O=C1[C@H](CC[C@H](O)c2ccc(F)cc2)[C@@H](c2ccc(CCCC[C@@H]3O[C@H](CO)[C@@H](O)[C@H](O)[C@H]3O)cc2)N1c1ccc(F)cc1 [Compound 53] | 81 to 83
32 | Cc1ccc(N2C(=O)[C@H](CC[C@H](O)c3ccc(F)cc3)[C@H]2c2ccc(CC[C@@H]3O[C@H](CO)[C@@H](O)[C@H](O)[C@H]3O)cc2)cc1 [Compound 57] | 116 to 118
33 | Cc1ccc(N2C(=O)[C@H](CC[C@H](O)c3ccc(F)cc3)[C@H]2c2ccc([C@@H]3O[C@H](CO)[C@@H](O)[C@H](O)[C@H]3O)cc2)cc1 [Compound 36] | 79 to 81
34 | Cc1ccc(N2C(=O)[C@H](CCCc3ccc(F)cc3)[C@H]2c2ccc(C[C@@H]3O[C@H](CO)[C@@H](O)[C@H](O)[C@H]3O)cc2)cc1 [Compound 7] | 80 to 82

— US7795229B2, “Serum cholesterol lowering agent or preventative or therapeutic agent for atherosclerosis” (Kotobuki Pharmaceutical Co., Ltd., priority 2003, dated 2010)
